# Key:
# [1] = tested on: peripheral lymphocyte counts; assay: Recovery of absolute lymphocyte counts after S1P modulator dosing in healthy volunteers; type: in vivo, human; conditions: single 1 mg FTY720, BAF312 multiple doses for 28 days, single 3 mg KRP203
# Experimental: Mocravimod is particularly preferred. […] A measurable parameter that determines maintenance of the mode of action, i.e., sequestering of lymphocytes in secondary lymphoid organs and bone marrow, is reduction of peripheral lymphocyte counts. Recovery of absolute lymphocyte counts to 80% of normal counts after a single 1 mg dose of FTY720, multiple dose applications of BAF312 for 28 days, or a single 3 mg dose of KRP203 was reached after 8, 7 and more than 10 days, respectively.
# [2] = tested on: acute GVHD after allogeneic HSCT; conditions: preclinical; cited from earlier work
# [3] = tested on: S1PR1 versus S1PR3-5; conditions: cited from earlier work
# [4] = Pharmacokinetics of [14C]KRP203 radioactivity in rats; type: in vivo, rat
# Source text: Following intravenous administration of [14C]KRP203, radioactivity was readily distributed to rat and dog tissues with similar volume of distribution (Vss=8.0 L/kg in rat).
# [5] = Pharmacokinetics of [14C]KRP203 radioactivity in dogs; type: in vivo, dog; conditions: oral administration
# [6] = Plasma protein binding; type: in vitro ADME; conditions: human plasma
# [7] = Tissue distribution of [14C]KRP203 radioactivity in Wistar rats; type: in vivo, rat
# Source text: Highly exposed tissues were liver and to a smaller extent kidney, small intestine, adrenal gland, lungs, spleen and mesenteric lymph nodes.
# [8] = biological target: T1, S1P1 (Homo sapiens, UniProt P21453); assay: S1P receptor agonism on S1P1; type: biochemical
# T1 sequence (P21453 whole entry): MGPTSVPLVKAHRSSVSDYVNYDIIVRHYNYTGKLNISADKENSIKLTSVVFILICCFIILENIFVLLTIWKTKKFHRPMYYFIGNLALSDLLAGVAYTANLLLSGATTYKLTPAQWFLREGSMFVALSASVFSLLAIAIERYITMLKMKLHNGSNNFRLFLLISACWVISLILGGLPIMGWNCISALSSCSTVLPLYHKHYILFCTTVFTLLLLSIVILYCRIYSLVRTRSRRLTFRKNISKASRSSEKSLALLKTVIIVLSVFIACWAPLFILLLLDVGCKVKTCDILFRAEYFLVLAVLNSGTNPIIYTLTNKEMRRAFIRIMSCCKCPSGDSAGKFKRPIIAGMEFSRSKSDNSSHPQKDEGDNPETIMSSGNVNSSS
# Source text: (§1) KRP203 (mocravimod) is an immunomodulator that selectively targets sphingosine 1-phosphate (S1P) receptors via its phosphorylated active metabolite. […] The therapeutic effects are believed to be due to the prevention of effector lymphocyte recirculation from lymphatic tissue to susceptible target organs such as the gut, skin or CNS.
# [9] = biological target: S1P4 (Homo sapiens, UniProt O95977); assay: S1P receptor agonism on S1P4; type: biochemical
# S1P4, sequence (O95977 whole entry): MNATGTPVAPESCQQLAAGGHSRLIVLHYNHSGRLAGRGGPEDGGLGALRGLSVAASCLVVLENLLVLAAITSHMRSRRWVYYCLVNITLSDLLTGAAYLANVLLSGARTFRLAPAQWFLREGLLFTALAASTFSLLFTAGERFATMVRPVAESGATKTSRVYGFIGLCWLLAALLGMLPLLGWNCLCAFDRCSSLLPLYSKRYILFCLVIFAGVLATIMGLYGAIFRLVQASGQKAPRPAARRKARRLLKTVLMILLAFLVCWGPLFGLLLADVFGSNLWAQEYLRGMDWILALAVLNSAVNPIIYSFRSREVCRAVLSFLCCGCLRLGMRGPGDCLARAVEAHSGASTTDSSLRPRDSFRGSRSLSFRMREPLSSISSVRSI
# Source text: as §1
# [10] = biological target: hS1P3 (Homo sapiens, UniProt Q99500); assay: S1P receptor agonism on S1P3; type: biochemical
# hS1P3, sequence (Q99500 whole entry): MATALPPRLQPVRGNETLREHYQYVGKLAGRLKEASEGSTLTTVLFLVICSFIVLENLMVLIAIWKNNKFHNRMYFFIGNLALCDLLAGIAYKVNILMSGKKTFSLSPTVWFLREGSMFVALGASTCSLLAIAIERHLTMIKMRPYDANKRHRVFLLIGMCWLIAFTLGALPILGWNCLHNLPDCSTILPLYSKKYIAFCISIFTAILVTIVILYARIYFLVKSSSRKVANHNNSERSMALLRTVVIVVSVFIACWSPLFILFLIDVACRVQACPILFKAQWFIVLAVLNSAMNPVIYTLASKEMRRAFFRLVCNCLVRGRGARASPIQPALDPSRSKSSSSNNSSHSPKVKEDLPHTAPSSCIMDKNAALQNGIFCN
# Source text: as §1
# [11] = biological target: S1P5 (Homo sapiens, UniProt Q9H228); assay: S1P receptor agonism on S1P5; type: biochemical
# S1P5, sequence (Q9H228 whole entry): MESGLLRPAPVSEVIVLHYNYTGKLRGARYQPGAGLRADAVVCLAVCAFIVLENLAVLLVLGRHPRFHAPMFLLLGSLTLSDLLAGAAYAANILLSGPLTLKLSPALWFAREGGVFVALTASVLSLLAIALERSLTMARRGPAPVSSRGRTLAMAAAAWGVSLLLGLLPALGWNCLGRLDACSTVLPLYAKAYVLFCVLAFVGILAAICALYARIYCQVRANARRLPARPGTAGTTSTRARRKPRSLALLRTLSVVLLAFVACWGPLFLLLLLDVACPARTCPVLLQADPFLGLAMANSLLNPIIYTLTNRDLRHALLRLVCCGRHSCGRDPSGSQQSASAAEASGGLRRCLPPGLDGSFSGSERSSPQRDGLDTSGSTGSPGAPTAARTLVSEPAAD
# Source text: as §1
# [12] = biological target: T1, S1P1; assay: S1P1 internalization; type: cell-based
# Source text: KRP203 reduces lymphocyte counts in peripheral blood by more than 80%.
# [13] = tested on: GPCRs, ion channels, transporters, nuclear receptors and enzymes; assay: Off-target binding assays; conditions: compared to estimated free plasma concentration at 3 mg/day
# Source text: Thus it is unlikely that secondary pharmacology effects should arise due to non-specific receptor activation at therapeutic doses.
# [14] = biological target: hERG channels (Homo sapiens, UniProt Q12809); assay: hERG channel inhibition in vitro; type: biochemical; conditions: up to the highest concentration tested, 3 μM
# hERG channels, sequence (Q12809 whole entry): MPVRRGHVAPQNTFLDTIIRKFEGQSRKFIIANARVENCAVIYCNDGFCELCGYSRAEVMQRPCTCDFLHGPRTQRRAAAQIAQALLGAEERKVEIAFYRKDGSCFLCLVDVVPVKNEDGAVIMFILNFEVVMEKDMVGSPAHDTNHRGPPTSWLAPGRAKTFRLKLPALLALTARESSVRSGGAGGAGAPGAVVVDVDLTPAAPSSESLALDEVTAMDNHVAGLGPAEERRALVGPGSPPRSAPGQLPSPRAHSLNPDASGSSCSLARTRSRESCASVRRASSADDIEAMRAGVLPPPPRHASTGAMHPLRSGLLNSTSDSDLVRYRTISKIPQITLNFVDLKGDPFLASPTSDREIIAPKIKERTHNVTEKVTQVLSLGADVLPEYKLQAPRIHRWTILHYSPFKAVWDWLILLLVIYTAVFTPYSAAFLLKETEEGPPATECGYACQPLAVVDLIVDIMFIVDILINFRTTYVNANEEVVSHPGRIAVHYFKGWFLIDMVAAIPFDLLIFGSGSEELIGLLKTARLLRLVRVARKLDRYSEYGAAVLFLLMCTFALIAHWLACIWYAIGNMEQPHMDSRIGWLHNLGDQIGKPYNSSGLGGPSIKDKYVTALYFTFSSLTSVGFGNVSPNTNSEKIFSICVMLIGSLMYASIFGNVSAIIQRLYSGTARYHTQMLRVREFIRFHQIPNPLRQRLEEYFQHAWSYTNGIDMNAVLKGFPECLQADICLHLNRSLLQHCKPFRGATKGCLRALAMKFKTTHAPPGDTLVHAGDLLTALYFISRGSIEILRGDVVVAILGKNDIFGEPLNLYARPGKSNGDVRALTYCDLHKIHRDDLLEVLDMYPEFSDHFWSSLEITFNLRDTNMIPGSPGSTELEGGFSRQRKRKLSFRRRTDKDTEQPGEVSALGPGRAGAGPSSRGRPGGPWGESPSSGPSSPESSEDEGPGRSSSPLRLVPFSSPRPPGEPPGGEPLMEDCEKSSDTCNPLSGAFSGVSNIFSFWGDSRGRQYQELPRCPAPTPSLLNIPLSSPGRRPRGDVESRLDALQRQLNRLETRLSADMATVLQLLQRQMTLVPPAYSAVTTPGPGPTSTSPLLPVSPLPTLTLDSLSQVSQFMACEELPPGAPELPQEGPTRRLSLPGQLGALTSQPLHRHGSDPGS
# Source text: (§2) Based on the available in vitro and in vivo data, except for the potential to cause a negative chronotropic effect and some mild increase in blood pressure, there is no indication that KRP203 would cause arrhythmia or QT prolongation in man.
# [15] = tested on: guinea pig papillary muscle preparation; assay: APD in guinea pig papillary muscle preparation; conditions: concentrations of 3 μM
# Source text: as §2
# [16] = In vitro metabolite profile in human hepatocytes; type: in vitro ADME
# [17] = In vivo plasma ratio of phosphorylated KRP203 to KRP203 in rat
# Experimental: (§3) The in vivo ratio of phosphorylated KRP203 to KRP203 in plasma was up to 45 in rat. As the metabolic activities on KRP203 in human blood and hepatocytes were lower than those of other species, the metabolic clearance of KRP203 in man is expected be lower than that in rat and dog. […] KRP230 formed low amounts of covalent drug-protein adducts in human hepatocytes in vitro. Due to the low levels detected ([…] at 3 hours) in-vitro adduct formation is unlikely to be associated with clinical relevant findings at low dose levels (e.g. below 10 mg).
# [18] = tested on: human cytochrome P450 isoenzymes; assay: Inhibition of cytochrome P450 isoenzymes in vitro; type: in vitro ADME
# Experimental: as §3
# The weak inhibitory effect of ciclosporin on hepatic CYP3A4 is unlikely to relevantly impact the PK of KRP203.
# [19] = biological target: CYP3A4 via the human PXR receptor (Homo sapiens, UniProt O75469); assay: CYP3A4 induction via PXR; type: in vitro ADME
# CYP3A4 via the human PXR receptor, sequence (O75469 whole entry): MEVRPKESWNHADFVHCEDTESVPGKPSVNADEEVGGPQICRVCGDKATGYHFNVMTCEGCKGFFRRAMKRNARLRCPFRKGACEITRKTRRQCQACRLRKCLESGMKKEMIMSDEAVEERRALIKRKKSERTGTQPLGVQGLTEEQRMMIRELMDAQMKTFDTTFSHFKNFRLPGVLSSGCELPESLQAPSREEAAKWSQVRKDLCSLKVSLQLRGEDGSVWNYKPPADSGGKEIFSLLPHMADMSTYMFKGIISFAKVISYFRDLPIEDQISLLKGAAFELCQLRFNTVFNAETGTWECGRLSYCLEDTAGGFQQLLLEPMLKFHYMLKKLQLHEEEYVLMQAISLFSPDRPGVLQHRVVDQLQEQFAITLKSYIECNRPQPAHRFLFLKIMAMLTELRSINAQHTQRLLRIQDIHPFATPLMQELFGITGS
# [20] = tested on: bacterial mutation; assay: In vitro genotoxicity: bacterial mutation; type: cell-based
# [21] = tested on: chromosome aberration; assay: In vitro genotoxicity: chromosome aberration; type: cell-based
# [22] = Plasma toxicokinetics in dog
# [23] = Plasma toxicokinetics in rat
compound,measurement,setting,value
CCc1cc(/C(C)=N/OCc2ccc(C3CCCCC3)c(C(F)(F)F)c2)ccc1CN1CC(C(=O)O)C1 [BAF312],Recovery of absolute lymphocyte counts to 80% of normal counts,[1],7 days
CCCCCCCCc1ccc(CCC(N)(CO)CO)cc1 [FTY720],Recovery of absolute lymphocyte counts to 80% of normal counts,[1],8 days
same,effect on acute GVHD,[2],ameliorate acute GVHD
same,S1P receptor selectivity,[3],poor selectivity for S1PR1 versus S1PR3-5
NC(CO)(CO)CCc1ccc(Sc2cccc(OCc3ccccc3)c2)cc1Cl [[14C]KRP203],volume of distribution Vss,"[4]; intravenous administration, rat",8.0 L/kg
same,radioactivity Tmax,"[4]; oral administration, male rats",7 h
same,radioactivity Tmax,[5],9.3 h
same,fraction unbound,[6],< 0.01
same,total radioactivity in brain relative to plasma,[7]; 14-day multiple oral dose 0.5 mg/kg/day,accumulated more in brain relative to plasma and eliminated much slower
same,"radioactivity in CNS tissues (cerebrum, cerebellum and medulla oblongata) versus plasma",[7]; until 24 h post-dose after single administration,lower than in plasma
KRP203-phosphate,agonist activity,[8],potent agonist
same,agonist activity,[9],potent agonist
same,agonist activity,[10],potent but partial agonist
same,agonist activity,[11],potent but partial agonist
same,internalization of the S1P1,[12],long-lasting and complete internalization
same,safety margins in off-target binding assays,[13],large safety margins
same,effects on hERG channels,[14],did not show significant effects
same,APD prolongation,[15],No APD prolongation
same,metabolite abundance in human hepatocytes,[16],among the more prominent metabolites
same,in vivo ratio of phosphorylated KRP203 to KRP203 in plasma,[17],up to 45
same,effect on cytochromes P450 enzymes and transporters,[18],lack of effect
same,no significant induction of CYP3A4 via the human PXR receptor up to concentration,[19],≤ 50 µM
same,genotoxic potential,[20],no evidence for a genotoxic potential
same,genotoxic potential,[21],no evidence for a genotoxic potential
same,KRP203-phosphate/KRP203 ratio (based on AUC0-24 h),[22],1.4-6.6
same,accumulation after repeated dosing (4 and 13 weeks),[22],no evidence of accumulation
same,proportionality between exposure and dose,[22]; single and multiple doses (4 and 13 weeks),trend for an under proportionality at all dose levels
same,KRP203-phosphate/KRP203 ratio (based on AUC0-24 h),[23],10.9-19.1
same,proportionality between exposure and dose,[23]; single and multiple administrations,apparent proportionality between exposure and dose

# Source: patent publication US20230130403A1, “METHODS OF TREATMENT WITH S1P RECEPTOR MODULATORS” (PRIOTHERA SAS, priority 2021, published 2023)
